Experimental data taken from patent US8614235B2, “CAI-based systems and methods for the localized treatment of ocular and other diseases” (RFE Pharma LLC, priority 2004, dated 2013).

Tests used:
[1] = tested on: neovascularization; assay: Contemplated clinical cases, local ocular CAI against neovascularization; format: in vivo
Text: The following contemplated clinical cases of angiogenesis are presented as examples of methods of treatment and not as limitations. Other illustrations of treating systemic or localized angiogenesis are not presented, since the principles involved are similar, and will be apparent to the skilled reader based upon review of an individual's clinical manifestation and the preferred embodiments of the inventive compositions.

[2] = in vivo; cited from earlier work
[3] = cited from earlier work
[4] = patients; cited from earlier work
[5] = single 5 mg peribulbar injection in humans; cited from earlier work

Row | Compound | neovascular regression ([1]; Example 9, proliferative diabetic retinopathy, intravitreal 50 mcg) | neovascular regression ([1]; Example 10, subfoveal membrane, intravitreal 200 mcg then periocular sustained release solution) | serum half-life [2] [h] | toxic effects observed in clinical studies ([3]; systemic oral dosing, doses required for effective circulating levels) | serious side effect of clinical use by systemic administration ([3]; two cases described (Berlin et al. 2002)) | plasma concentrations associated with unacceptable toxicity [4] | dexamethasone detected in the vitreous cavity [5] [ng/mL]
1 | NC(=O)c1nnn(Cc2cc(Cl)c(C(=O)c3ccc(Cl)cc3)c(Cl)c2)c1N [CAI] | some neovascular regression | neovascular regression occurs | 111 | cerebellar ataxia, peripheral neuropathy and exacerbation of depression | loss of vision | above 100 micromolar | 
2 | C[C@@H]1C[C@H]2[C@@H]3CCC4=CC(=O)C=C[C@]4(C)[C@@]3(F)[C@@H](O)C[C@]2(C)[C@@]1(O)C(=O)CO [Dexamethasone] |  |  |  |  |  |  | 13
